Tested on: Bovine cardiac myofibrils
Assay: In vitro model of dose-dependent myofibril ATPase modulation (AC1.4, pyruvate kinase/lactate dehydrogenase-coupled ATPase assay at pCa25)
Type: biochemical
Conditions: concentration at which ATPase activity was 1.4-fold higher than the bottom of the dose curve, mean of a minimum of two independent tests
Outline: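 Absorbance at 340 nm tracked ATP hydrolysis through pyruvate kinase/lactate dehydrogenase coupling (0.5 mM NADH, 1.5 mM PEP). Myofibrils from detergent-homogenized bovine heart, 1 mM ATP, pH 6.80, EGTA/CaCl2 buffering. Dose-response curves fitted with a four-parameter Hill equation.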

| Compound | AC1.4 |
| --- | --- |
| N#CC1CN(S(=O)(=O)N2CCC[C@H](C(=O)N3CCC[C@@H]3C(=O)N[C@@H](c3ccc(S(F)(F)(F)(F)F)cc3)C3CC3)C2)C1 [Example 117, 1-(((3S)-1-((3-cyano-1-azetidinyl)sulfonyl)-3-piperidinyl)carbonyl)-N-((R)-cyclopropyl(4-(pentafluoro-lambda~6~-sulfanyl)phenyl)methyl)-D-prolinamide] | 0.179 µM |
| Cc1cc(Cl)ccc1CNC(=O)[C@H]1CCCN1C(=O)[C@H]1CCCN(S(=O)(=O)N2CC(C#N)C2)C1 [Example 119, N-(4-chloro-2-methylbenzyl)-1-(((3S)-1-((3-cyano-1-azetidinyl)sulfonyl)-3-piperidinyl)carbonyl)-D-prolinamide] | 0.1819 µM |
| C[C@@H](NC(=O)[C@H]1CCCN1C(=O)c1cccc(S(=O)(=O)N2CC(C#N)C2)c1)c1ccc(C(F)F)cc1 [Example 120, 1-((3-((3-cyano-1-azetidinyl)sulfonyl)phenyl)carbonyl)-N-((1R)-1-(4-(difluoromethyl)phenyl)ethyl)-D-prolinamide] | 0.1826 µM |
| C[C@H](C(=O)N[C@H](C)c1ccc(C(F)(F)F)cc1)N(C)C(=O)c1cccc(S(=O)(=O)N2CC(C#N)C2)c1 [Example 121, 3-((3-cyano-1-azetidinyl)sulfonyl)-N-methyl-N-((1R)-1-methyl-2-oxo-2-(((1R)-1-(4-(trifluoromethyl)phenyl)ethyl)amino)ethyl)benzamide] | 0.1828 µM |
| N#CC1CN(S(=O)(=O)c2cccc(C(=O)N3C[C@H](F)C[C@@H]3C(=O)NCc3ccc(C(F)(F)F)cc3)c2)C1 [Example 122, (4R)-1-((3-((3-cyano-1-azetidinyl)sulfonyl)phenyl)carbonyl)-4-fluoro-N-(4-(trifluoromethyl)benzyl)-D-prolinamide] | 0.1858 µM |
| N#CC1CN(S(=O)(=O)n2cc(C(=O)N3CCC[C@@H]3C(=O)NCc3ccc(C(F)(F)F)cc3)cn2)C1 [Example 123, 1-((1-((3-cyano-1-azetidinyl)sulfonyl)-1H-pyrazol-4-yl)carbonyl)-N-(4-(trifluoromethyl)benzyl)-D-prolinamide] | 0.189 µM |
| N#CC1CN(S(=O)(=O)c2cccc(C(=O)N3C[C@H](O)C[C@@H]3C(=O)NCc3ccc(C(F)(F)F)cc3)c2)C1 [Example 126, (4R)-1-((3-((3-cyano-1-azetidinyl)sulfonyl)phenyl)carbonyl)-4-hydroxy-N-(4-(trifluoromethyl)benzyl)-D-prolinamide] | 0.2062 µM |
| Cc1ccc(CNC(=O)[C@H]2CCCN2C(=O)[C@H]2CCCN(S(=O)(=O)N3CC(C#N)C3)C2)cc1Cl [Example 130, N-(3-chloro-4-methylbenzyl)-1-(((3S)-1-((3-cyano-1-azetidinyl)sulfonyl)-3-piperidinyl)carbonyl)-D-prolinamide] | 0.214 µM |
| N#CC1CN(S(=O)(=O)c2cccc(C(=O)N3CCC[C@@H]3C(=O)NCc3ccc(C(F)(F)F)nc3)c2)C1 [Example 131, 1-((3-((3-cyano-1-azetidinyl)sulfonyl)phenyl)carbonyl)-N-((6-(trifluoromethyl)-3-pyridinyl)methyl)-D-prolinamide] | 0.2158 µM |
| N#CC1CN(S(=O)(=O)N2CCC[C@H](C(=O)N3CCC[C@@H]3C(=O)NC(c3ccc(Cl)cc3)C3CCCO3)C2)C1 (stereo partly drawn) [Example 132, N-(-(4-chlorophenyl)(-tetrahydro-2-furanyl)methyl)-1-(((3S)-1-((3-cyano-1-azetidinyl)sulfonyl)-3-piperidinyl)carbonyl)-D-prolinamide] | 0.2176 µM |
| N#CC1CN(S(=O)(=O)N2CCC[C@H](C(=O)N3CCC[C@@H]3C(=O)NC(CO)c3ccc(C(F)(F)F)cc3)C2)C1 (stereo partly drawn) [Example 134, 1-(((3S)-1-((3-cyano-1-azetidinyl)sulfonyl)-piperidinyl)carbonyl)-N-(-2-hydroxy-1-(4-(trifluoromethyl)phenyl)ethyl)-D-prolinamide] | 0.2198 µM |
| N#CC1CN(S(=O)(=O)c2cccc(C(=O)N3CCC[C@@H]3C(=O)NCc3cnc(C(F)(F)F)nc3)c2)C1 [Example 136, 1-((3-((3-cyano-1-azetidinyl)sulfonyl)phenyl)carbonyl)-N-((2-(trifluoromethyl)-5-pyrimidinyl)methyl)-D-prolinamide] | 0.2235 µM |
| Cc1cc(CNC(=O)[C@H]2CCCN2C(=O)[C@H]2CCCN(S(=O)(=O)N3CC(C#N)C3)C2)ccc1Cl [Example 137, N-(4-chloro-3-methylbenzyl)-1-(((3S)-1-((3-cyano-1-azetidinyl)sulfonyl)-3-piperidinyl)carbonyl)-D-prolinamide] | 0.2267 µM |
| N#CC1CN(S(=O)(=O)c2cc(C(=O)N3CCC[C@@H]3C(=O)NCc3ccc(C(F)(F)F)cc3F)ccn2)C1 [Example 142, 1-((2-((3-cyano-1-azetidinyl)sulfonyl)-4-pyridinyl)carbonyl)-N-(2-fluoro-4-(trifluoromethyl)benzyl)-D-prolinamide] | 0.2421 µM |
| N#CC1CN(S(=O)(=O)N2CCC(F)(F)[C@H](C(=O)N3CCC[C@@H]3C(=O)NCc3ccc(C(F)(F)F)cc3)C2)C1 [Example 143, 1-(((3S)-1-((3-cyano-1-azetidinyl)sulfonyl)-4,4-difluoro-3-piperidinyl)carbonyl)-N-(4-(trifluoromethyl)benzyl)-D-prolinamide] | 0.244 µM |
| C[C@@H](NC(=O)[C@H]1CCCN1C(=O)[C@@H]1CN(S(=O)(=O)N2CC(C#N)C2)CCN1)c1ccc(C(F)(F)F)cc1F [Example 144, 1-(((2S)-4-((3-cyano-1-azetidinyl)sulfonyl)-2-piperazinyl)carbonyl)-N-((1R)-1-(2-fluoro-4-(trifluoromethyl)phenyl)ethyl)-D-prolinamide] | 0.2462 µM |

The next lines start with the values.

| AC1.4 | Compound |
| --- | --- |
| 0.1795 µM | CS(=O)(=O)c1ccc(NCCO)c(C(=O)N2[C@@H](C(=O)N[C@@H](c3ccc(C(F)(F)F)cc3F)C3CC3)C[C@H]3C[C@H]32)c1 [Example 118, (1R,3R,5R)-N-((R)-cyclopropyl(2-fluoro-4-(trifluoromethyl)phenyl)methyl)-2-(2-((2-hydroxyethyl)amino)-5-(methylsulfonyl)benzoyl)-2-azabicyclo[3.1.0]hexane-3-carboxamide] |
| 0.1998 µM | CC[C@@H](NC(=O)[C@H]1CCCN1C(=O)c1cccc(S(=O)(=O)N2CC(C#N)C2)c1)c1cc(F)cc(F)c1 [Example 124, 1-(3-((3-cyano-1-azetidinyl)sulfonyl)benzoyl)-N-((1R)-1-(3,5-difluorophenyl)propyl)-D-prolinamide] |
| 0.2026 µM | CS(=O)(=O)c1ccc(C(=O)N2CCCC[C@@H]2C(=O)N[C@@H](c2cc(F)c(Cl)cc2F)C2CC2)cn1 [Example 125, (2R)-N-((R)-(4-chloro-2,5-difluorophenyl)(cyclopropyl)methyl)-1-((6-(methylsulfonyl)-3-pyridinyl)carbonyl)-2-piperidinecarboxamide] |
| 0.2088 µM | O=C(N[C@@H](c1cc(F)c(Cl)cc1F)C1CC1)[C@H]1C[C@H]2C[C@H]2N1C(=O)c1cccc(C(F)(F)F)c1 [Example 127, (1R,3R,5R)-N-((R)-(4-chloro-2,5-difluorophenyl)(cyclopropyl)methyl)-2-(3-(trifluoromethyl)benzoyl)-2-azabicyclo[3.1.0]hexane-3-carboxamide] |
| 0.2103 µM | CCS(=O)(=O)c1cccc(C(=O)N2[C@@H](C(=O)N[C@@H](c3ccc(C(F)(F)F)cc3F)C3COC3)C[C@H]3C[C@H]32)c1 [Example 128, (1R,3R,5R)-2-(3-(ethylsulfonyl)benzoyl)-N-((R)-(2-fluoro-4-(trifluoromethyl)phenyl)(3-oxetanyl)methyl)-2-azabicyclo[3.1.0]hexane-3-carboxamide] |
| 0.2119 µM | CS(=O)(=O)c1cccc(C(=O)N2CSC[C@@H]2C(=O)N[C@@H](c2ccc(C(F)(F)F)cc2F)C2CC2)c1 [Example 129, (4S)-N-((R)-cyclopropyl(2-fluoro-4-(trifluoromethyl)phenyl)methyl)-3-(3-(methylsulfonyl)benzoyl)-1,3-thiazolidine-4-carboxamide] |
| 0.2186 µM | CCS(=O)(=O)c1ccnc(C(=O)N2[C@@H](C(=O)N[C@@H](c3cc(F)c(Cl)cc3F)C3CC3)C[C@H]3C[C@H]32)c1 [Example 133, (1R,3R,5R)-N-((R)-(4-chloro-2,5-difluorophenyl)(cyclopropyl)methyl)-2-((4-(ethylsulfonyl)-2-pyridinyl)carbonyl)-2-azabicyclo[3.1.0]hexane-3-carboxamide] |
| 0.2306 µM | O=C(N[C@@H](c1cc(F)c(Cl)cc1F)C1CC1)[C@H]1C[C@H]2C[C@H]2N1C(=O)c1cc(S(=O)(=O)C2CC2)ccn1 [Example 138, (1R,3R,5R)-N-((R)-(4-chloro-2,5-difluorophenyl)(cyclopropyl)methyl)-2-((4-(cyclopropylsulfonyl)-2-pyridinyl)carbonyl)-2-azabicyclo[3.1.0]hexane-3-carboxamide] |
| 0.232 µM | NS(=O)(=O)c1cccc(C(=O)N2[C@@H](C(=O)N[C@@H](c3cc(F)c(Cl)cc3F)C3CC3)C[C@H]3C[C@H]32)c1 [Example 139, (1R,3R,5R)-N-((R)-(4-chloro-2,5-difluorophenyl)(cyclopropyl)methyl)-2-(3-sulfamoylbenzoyl)-2-azabicyclo[3.1.0]hexane-3-carboxamide] |
| 0.2351 µM | Cc1cc(C(=O)N2[C@@H](C(=O)N[C@@H](c3cc(F)c(Cl)cc3F)C3COC3)C[C@H]3C[C@H]32)cc(S(C)(=O)=O)c1 [Example 140, (1R,3R,5R)-N-((R)-(4-chloro-2,5-difluorophenyl)(3-oxetanyl)methyl)-2-(3-methyl-5-(methylsulfonyl)benzoyl)-2-azabicyclo[3.1.0]hexane-3-carboxamide] |
| 0.2366 µM | CS(=O)(=O)c1cccc(C(=O)N2C[C@@H](F)C[C@@H]2C(=O)N[C@@H](c2cc(F)c(Cl)cc2F)C2COC2)c1 [Example 141, (4S)-N-((R)-(4-chloro-2,5-difluorophenyl)(3-oxetanyl)methyl)-4-fluoro-1-(3-(methylsulfonyl)benzoyl)-D-prolinamide] |

Source: patent publication US11780826B2 (Amgen Inc., priority 2017, dated 2023)
